# Assay results reported in publication PMC5859250, “Contribution of transformation products towards the total herbicide toxicity to tropical marine organisms” (Scientific Reports, 2018).
# Entries after “also recorded” stand apart in the source; their conditions may differ.
# Columns and labels:
# [1] = test system: Navicula sp.; design: method as in PMID 20800855; conditions: cited from earlier work
# [2] = test system: Phaeodactylum tricornutum; design: method as in PMID 20800855; conditions: cited from earlier work
# [3] = test system: Cylindrotheca closterium; design: method as in PMID 20800855; conditions: cited from earlier work
# [4] = test system: Symbiodinium sp.; assay: Microalgal PAM fluorometry assay, inhibition of ∆F/Fm′ (24 h, 96-well plate); format: cell-based; conditions: for LOEC, effect on ∆F/Fm′ / NOEC, effect on ∆F/Fm′: pure transformation product, ANOVA p < 0.05
# Description: (§1) Microalgae play a critical role in the marine food web and have been used in a number of sensitive assays for the assessment of toxicity of both herbicides and their transformation products[13],[16],[60]. High throughput 96 well plate designs allow for increased replication and a wide range of concentrations especially when paired with pulse amplitude modulation (PAM) fluorometry[50],[61]. PAM fluorometry measures chlorophyll fluorescence and can be used to calculate inhibitions of effective quantum yield ∆F/Fm′, which is proportional to reduced photosynthetic efficiency[62] and growth in microalgae[63] and can be plotted against toxicant concentrations to derive concentrations that inhibit ∆F/Fm′ by 10, 20 and 50% (IC10, IC20 and IC50). In the present study the green algae (Dunaliella sp.) and coral symbiont (Symbiodinium sp.) were exposed to herbicides and aged herbicide solutions for 24 h in a 96-well plate format. A Maxi-Imaging-PAM (I-PAM) (Walz, GmbH Germany) was used to measure inhibition of ∆F/Fm′ using settings provided previously[36] and below.
# (§2) Symbiodinium cells were isolated from coral by air blasting branches of Acropora tenuis colonies collected (collected under the permit G10-33440.1) at 2–5 m depth in Nelly Bay, Magnetic Island, GBR[36]. Symbiodinium cells were inoculated into sterile IMK growing media, the culture purified, DNA extracted, and Clade C1 identified as published previously[64],[65]. Cultures were maintained at 26 °C, 60 µE PAR, 14:10 light:dark photoperiod inside environmental chambers (Steridium e500). The Dunaliella sp. (CS-353) (Chlorophyceae) was obtained from the CSIRO Collection of Living Microalgae (CCLM). The algae was subcultured and grown in F2 media. For the toxicology assays, an exponentially growing culture was employed[63] and density adjusted by hemocytometry under 10× magnification. Day 7 sub-cultures were used throughout the experiment.
# (§3) Herbicide solutions were delivered into each treatment plate using a Perkin Elmer Janus liquid handling system. Each well of the black 96-well plates (Perkin Elmer) received 100 µl herbicide solution as well as 100 µl of algal suspension (added via multi-channel pipette) and the solution was gently mixed. […] Each plate included a 3 µg l^−1 positive diuron control (n = 4) to confirm consistent sensitivities among the replicate algal subcultures. Treatments positions were randomised across the plates in duplicate[50],[61],[66]. Symbiodinium culture plates were incubated over a 12:12 h light:dark cycle at 26 °C and 60–70 µmol photons m^−2 s^−1 and Dunaliella sp. Plates incubated at: 26 °C and 130 µmol photons m^−2 s^−1. Microalgae were exposed for 24 h prior to PAM measurements. Samples were subjected to the 50 µmol photons m^−2 s^−1 actinic light for 1 min prior to measurement in the Maxi-IPAM (Actinic light = 1, ML = 10, ML frequency = 8, gain = 2 and damping = 1).
# (§4) The model was constrained by applying a lower limit of 0% inhibition and all curves were tested for normality of the residuals and a replicate test was applied to assess the goodness of fit[36]. The probability that ICX values generated by the logistic curves were statistically different between parent and aged herbicide solutions was tested by applying the F test in Graph Pad Prism v6. ICXs were considered different when p < 0.05. Where inhibition data could not be fitted to logistic curves, one-way analysis of variance (ANOVA) was performed to identify treatments which caused significant (p < 0.05) inhibition comparison with control treatments (NCSS v9, Utah, USA). The larval prawn experimental data was arcsine square root transformed prior to statistical analysis.
# [5] = test system: Dunaliella sp.; assay: as above; format: cell-based; conditions: for LOEC, effect on ∆F/Fm′ / NOEC, effect on ∆F/Fm′: pure transformation product, ANOVA p < 0.05
# Description: as §1, §2, §3, §4
# [6] = test system: Nephroselmis pyriformis; design: method as in PMID 20800855; conditions: cited from earlier work
# [7] = test system: Diporeia spp.; design: method as in PMID 19533344; conditions: cited from earlier work
# [8] = test system: Hyalella azteca; design: method as in PMID 19533344; conditions: cited from earlier work
# [9] = test system: Brachionus plicatilis; design: method as in PMID 1722733; conditions: cited from earlier work
# [10] = test system: Brachionus calyciflorus; design: method as in PMID 1722733; conditions: cited from earlier work
# [11] = 24 h, read-out: IC20 parent (inhibition of ∆F/Fm′ by 20%)
structure (smiles),measurement,setting,value
"CC(C)Nc1nc(N)nc(Cl)n1 [DEA, desethylatrazine]",IC10,[1],0.111 µg/mL
same,IC10,[2],0.046 µg/mL
same,IC10,[3],0.102 µg/mL
same,IC20,[4]; [11],0.218 µg/mL
same,IC10 parent (inhibition of ∆F/Fm′ by 10%),"[4]; Symbiodinium sp., 24 h, pure compound",103 (93–115) µg l^−1
same,Inhibition of ∆F/Fm′,"[4]; Symbiodinium sp., evident at 84 µg l^−1",9–35%
same,"LOEC, effect on ∆F/Fm′",[4]; Symbiodinium sp.,83.68 µg/L
same,"NOEC, effect on ∆F/Fm′",[4]; Symbiodinium sp.,55.63 µg/L
same,IC20,[5]; [11],0.31 µg/mL
same,IC10 parent (inhibition of ∆F/Fm′ by 10%),"[5]; Dunaliella sp., 24 h, pure compound",157 (142–173) µg l^−1
same,Inhibition of ∆F/Fm′,"[5]; Dunaliella sp., evident at 56 µg l^−1",9–35%
same,"LOEC, effect on ∆F/Fm′",[5]; Dunaliella sp.,55.63 µg/L
same,"NOEC, effect on ∆F/Fm′",[5]; Dunaliella sp.,33.30 µg/L
same,IC10,[6],0.0266 µg/mL
"CCNc1nc(N)nc(Cl)n1 [DIA, desisopropylatrazine]",96-hour LC50,[7],> 3 µg/mL
same,Inhibition of ∆F/Fm′,"[4]; Symbiodinium sp., 458 µg l^−1",< 8%
same,"LOEC, effect on ∆F/Fm′",[4]; Symbiodinium sp.,>458.31 µg/L
same,"NOEC, effect on ∆F/Fm′",[4]; Symbiodinium sp.,458.31 µg/L
same,Inhibition of ∆F/Fm′,"[5]; Dunaliella sp., 458 µg l^−1, significant (ANOVA, p < 0.05)",< 8%
same,"LOEC, effect on ∆F/Fm′",[5]; Dunaliella sp.,458.31 µg/L
same,"NOEC, effect on ∆F/Fm′",[5]; Dunaliella sp.,148.97 µg/L
same,96-hour LC50,[8],> 3 µg/mL
"Nc1ccc(Cl)c(Cl)c1 [3,4-DCA, 3,4-dichloroaniline]",LC50,[9],~ 60 mg l^−1
same,Inhibition of ∆F/Fm′ (in words),"[4]; Symbiodinium sp., concentrations up to 273 µg l^−1",no significant inhibition; also recorded: did not inhibit ∆F/Fm′
same,"LOEC, effect on ∆F/Fm′",[4]; Symbiodinium sp.,>273.41 µg/L
same,"NOEC, effect on ∆F/Fm′",[4]; Symbiodinium sp.,273.41 µg/L
same,Inhibition of ∆F/Fm′ (in words),"[5]; Dunaliella sp., concentrations up to 273 µg l^−1",no significant inhibition; also recorded: did not inhibit ∆F/Fm′
same,"LOEC, effect on ∆F/Fm′",[5]; Dunaliella sp.,>273.41 µg/L
same,"NOEC, effect on ∆F/Fm′",[5]; Dunaliella sp.,273.41 µg/L
same,LC50,[10],~ 60 mg l^−1
